Literature values in US9375470B2, “Compositions with reduced dimer formation” (Circassia Limited, priority 2008, dated 2016).
Where two headings read alike, the source gives them in different places.

[1] = reported values, Tg for the maximally freeze concentrated state

| Tg (reported values) | Tg′ [1] | Tg′ [°C] | Teut (eutectic temperature) [°C] | Structure (SMILES) |
| --- | --- | --- | --- | --- |
| >100 °C | – | – | – | OC[C@H]1O[C@@](CO)(O[C@H]2O[C@H](CO)[C@@H](O)[C@H](O)[C@H]2O)[C@@H](O[C@H]2O[C@H](CO)[C@@H](O)[C@H](O)[C@H]2O)[C@@H]1O [Melezitose] |
| 70-106 °C | Approx. −36 | – | – | OC[C@H]1O[C@H](OC[C@H]2O[C@H](O[C@]3(CO)O[C@H](CO)[C@@H](O)[C@@H]3O)[C@H](O)[C@@H](O)[C@@H]2O)[C@H](O)[C@@H](O)[C@H]1O [Raffinose] |
| 81-123 °C | – | – | – | OC[C@H]1O[C@H](OC[C@H]2O[C@H](OC[C@H]3O[C@H](O[C@]4(CO)O[C@H](CO)[C@@H](O)[C@@H]4O)[C@H](O)[C@@H](O)[C@@H]3O)[C@H](O)[C@@H](O)[C@H]2O)[C@H](O)[C@@H](O)[C@H]1O [Stachyose] |
| 43-65 °C | Approx. −46 | −32 | – | OC[C@H]1O[C@@](CO)(O[C@H]2O[C@H](CO)[C@@H](O)[C@H](O)[C@H]2O)[C@@H](O)[C@@H]1O [Sucrose] |
| 63-115 °C | Approx. −27 | – | – | OC[C@H]1O[C@H](O[C@H]2O[C@H](CO)[C@@H](O)[C@H](O)[C@H]2O)[C@H](O)[C@@H](O)[C@@H]1O [Trehalose] |
| – | – | – | −3 | OC[C@@H](O)[C@@H](O)[C@H](O)[C@H](O)CO [mannitol] |
